Laboratory results: US20090211893A1, “Photo-Activatable Amino Acids” (priority 2005, published 2009)

Tested on: caveolin-1
Test: Photo-crosslinking of transfected caveolin-1 in COS7 cells
Assay type: cell-based, human
Details: irradiated samples, COS7 cells in LM-4
Experimental: FIG. 3: Photo-crosslinking induced by photo-amino acids. COS7 cells (panels a,b) or HeLa cells (panel c) were grown in LM-4 (panel a) or LM-2 (panels b,c) in the absence or presence of L-photo-Leu (pL), L-photo-Met (pM) or DL-photo-Ile (pl) or mixtures of them (pLM or PLMI) followed by UV irradiation (+) or no irradiation (−). cross-linked products formed after UV-irradiation were detected by SDS-PAGE followed by western blotting using (a) anti-caveolin 1 to detect overexpressed caveolin 1, (b) anti-stomatin to detect endogenous stomatin or (c) anti-EEA1 to detect endogenous EEA1. In panel b, lanes 8 and 9 show cross-linking with two different concentrations of the chemical cross-linker DSS for comparison of cross-linking efficiency. In panel c, photocrosslinking of endogenous EEA1 by photo-Leu and photo-Met is compared to chemical cross-linking using DSS or para-formaldehyde (PFA) as indicated. Note that chemical cross-linking leads to protein aggregates that are not resolvable by SDS-PAGE while photocrosslinking identifies more than six discrete cross-linked bands.
COS7 (monkey kidney) cells were grown in DMEM high glucose (Gibco no. 11995; with L-glutamine and Na-pyruvate)+10% FCS. Typically, 3 cm2 of cells are needed for a cross-linking experiment with detection by western blotting. At about 70%, medium was replaced by LM-4 (DMEM lacking Met, Leu, Ile and Val and phenol red, supplemented with 5% dialyzed FCS) or by LM-2 (LM-4+1 mM of each Ile and Val). Photo-amino acids were added to a final concentration of 4 mM photo-Leu and photo-Ile, 1.7 mM photo-Met and cells were cultivated for further 22 h followed by washing with PBS and UV-irradiation using a 200 W high pressure mercury lamp (Oriel Photomax) with a glass filter to remove wavelengths shorter 310 nm. The samples were placed at a distance of 38 cm to the light source, corresponding to a illuminated area of 105 mm diameter. […] We used an irradiation time 1-3 min for experiments with living cells. […] Lysis of cells, SDS-PAGE and western blotting were done as described^33. […]

With `CC1(CCC(N)C(=O)O)N=N1` [photo-Met, L-2-amino-5,5′-azi-hexanoic acid] the “formation of covalent caveolin dimers upon UV irradiation” value was “significant formation of a cross-linked dimer”.
